Test results published in article PMC10147685, “Safety, tolerability, and pharmacokinetics of Aurora kinase B inhibitor AZD2811: a phase 1 dose-finding study in patients with advanced solid tumours” (British Journal of Cancer, 2023).

What was measured:
[1] = test system: LS- or ES-SCLC; settings: cited from earlier work
[2] = test system: patients with advanced solid tumours; assay: Phase 1 dose-escalation: safety, DLTs, AEs (CTCAE v4.03); assay type: in vivo
Experimental: AZD2811 was administered as an IV infusion over 2 h. The study included 12 dose-escalation cohorts. In Cohorts 1–6, dosing took place on Days 1 and 4 of a 28-day cycle, at 15 mg, 25 mg, 38 mg, 51 mg, 100 mg, and 200 mg. In Cohort 1, the starting dose was to be administered to a single patient on Days 1 and 4. […] Starting with Cohort 2, at least 3 evaluable patients were enrolled at each dose level (3 + 3 design) and were evaluated for 1 cycle before escalation to the next dose level. If one patient experienced a DLT, an additional 3 patients were treated with the same dose. Therefore, a maximum of 6 evaluable patients could be enrolled per dose level.
In Cohort 7, the Day 4 dose was removed from the schedule, and patients received AZD2811 200 mg on Day 1 of a 28-day cycle. Granulocyte colony-stimulating factor (G-CSF; filgrastim [short-acting G-CSF] or pegfilgrastim [long-acting G-CSF]) as primary prophylaxis for neutropenia was optional in Cohorts 7–9. In Cohorts 8–12, the cycle length was reduced, so dosing occurred on Day 1 of a 21-day cycle, at doses of 200–600 mg. Patients in Cohorts 10–12 received mandatory G-CSF on Day 8 after dosing in Cycle 1 as primary prophylaxis for neutropenia. PEGylated G-CSF (e.g. pegfilgrastim) could not be given later than Day 8 (in a 21-day cycle) due to its long half-life. G-CSF had to be discontinued at least 48 h prior to the next dose of AZD2811.
A DLT was defined as any of the following toxicities that occurred during the DLT evaluation period (the first 28 days [if a 28-day cycle] or the first 21 days [if a 21-day cycle] from the start of AZD2811), unless unequivocally due to underlying malignancy or an extraneous cause: grade 4 neutropenia for >7 days or febrile neutropenia; grade 4 thrombocytopenia or grade 3 thrombocytopenia associated with bleeding; concurrent grade ≥3 elevation of total bilirubin, alanine aminotransferase (ALT), aspartate aminotransferase (AST) or alkaline phosphatase (ALP) lasting >48 h, or any change in liver function test results consistent with Hy’s Law; any grade ≥3 non-haematological AE (except grade 3 nausea, vomiting, stomatitis and/or diarrhoea that was controlled within 4 days with standard supportive care, or grade 3 elevations in ALT/AST that return to meet initial eligibility criteria within 7 days of study drug interruption); inability to receive all doses in Cycle 1 due to treatment-related toxicity; or grade ≥2 non-haematological toxicity at any time during treatment that was deemed to be dose-limiting by the investigator and the medical monitor.
AEs were assessed throughout the treatment and follow-up periods. Patients were followed until all treatment-related toxicity resolved, or for at least 30 days post-study drug discontinuation. AEs were graded according to CTCAE v4.03. Venous blood samples (4 mL) for measurement of AZD2811 concentrations were collected at Cycle 1 Days 1–6, 8, 15, 16, and 22 and Cycle 2 Day 1 in Cohorts 1–6; Cycle 1 Days 1, 4, 8, 12, and 22 in Cohort 7; Cycle 1 Days 1, 4, 8, 12, and 15 and Cycle 2 Day 1 in Cohorts 8–12. Tumour imaging assessments using computed tomography or magnetic resonance imaging of the chest and abdomen/pelvis were performed at screening (≤28 days prior to initiation of treatment), and then every 2 cycles.
The safety analysis set comprised all patients who received at least one dose of AZD2811. The PK analysis set comprised all patients who received at least one dose of AZD2811 with at least one reportable concentration. […] There was no formal statistical analysis of safety and efficacy data. The numbers of patients experiencing each AE were summarised by Medical Dictionary for Regulatory Activities (MedDRA) version 22.1 system organ class, MedDRA preferred term, and CTCAE grade. The ORR and best overall response based on RECIST 1.1 were summarised. AZD2811 blood concentrations and derived PK parameters were summarised by dose regimen. […]

In the case of CCN(CCO)CCCOc1ccc2c(Nc3cc(CC(=O)Nc4cccc(F)c4)n[nH]3)ncnc2c1 [AZD2811, AZD1152 hydroxyquinazoline pyrazole anilide], the “Patients with SD” value ([1]; 200 mg AZD2811 on Days 1 and 4 every 28 days, 5/15 patients) is listed as 33.3%, the Objective responses ([1]; 200 mg AZD2811 on Days 1 and 4 every 28 days, 15 patients) is listed as “no objective responses” and the “Septic shock due to pneumonia with grade 4 neutropenia, patients” value ([1]; without prophylactic G-CSF, 1 of 15 patients) is listed as 6.7%. The “Febrile neutropenia, patients” value ([1]; without prophylactic G-CSF, 6 of 15 patients) was 40.0%, the “Target-related grade ≥3 neutropenia, patients” value ([1]; without prophylactic G-CSF, 9/15 patients) was 60.0% and the MTD/RP2D ([2]; Day 1 of a 21-day cycle with mandatory G-CSF on Day 8) was 500 mg. The “Dose reduction due to AZD2811-related AEs, patients” value ([2]; human, in vivo) was 4.5%, the “Dose reductions due to AZD2811-related AEs, patients” value ([2]; human, in vivo) was 17.2% and the “Doses at which ANC counts <500 cells/μL were observed” value ([2]; human, in vivo) was no less than 200 mg/cycle. For the same molecule, the “Doses that elicit a pharmacological response in bone marrow” value ([2]; human, in vivo) was greater than 200 mg/cycle, the Neutropenia ([2]; in vivo) was “not observed” and the “Patients with dose-limiting toxicities” value ([2]; in vivo) was “Five”. For the same molecule, the “Deaths due to AEs on treatment” value ([2]; not considered related to AZD2811: cardiac arrest (Cohort 9), sepsis (Cohort 11)) was “Two”.
